Experimental data: patent US11273136B2, “Method for increasing protein content in milk of lactating cows” (neopharma Japan Co., Ltd., priority 2019, dated 2022)

Test system: lactating Holstein milk cows
Assay: Crossover feeding test of 5-ALA-supplemented total mixed ration on milk yield and milk composition of lactating cows
Type: in vivo
From the text: Effects of ALAs on the milk composition of a lactating cow was studied. Six lactating Holstein milk cows (average body weight 698±18 kg, average milk production 24.1±1.6 kg/d, average days-in-milk (DIM) 209±34 days, and average number of lactations 2.9±0.4) were placed in a free stable. After a 7-day grace period, 6 cows were randomly assigned to section A and section B (each group n=3). Section A had, after a grace period, an ALA administration period of 14 days (ALA Consumption Group A), with an adjustment period of 7 days interposed, followed by an ALA non-administration period of 14 days (Control Group A), whereas Section B had, after a grace period, an ALA non-administration period of 14 days (Control Group B), with an adjustment period of 7 days interposed, followed by an ALA administration period of 14 days (ALA Consumption Group B), whereby the test was carried out by the crossover method. A total mixed ration (TMR) (see Table 2) which had been used was fed during the above grace period, adjustment period and ALA non-administration period, and a feed to which 10 mg of 5-ALA was added per kg of the total mixed ration (TMR) was fed during the ALA administration period.
5-ALA was provided by neopharma Japan Co., Ltd. Each feed and water were available at any time but feed consumption of each group on a dry base was 23.4 kg/day per cow in the control groups and 23.6 kg/day per cow in the ALA groups. Thus, the daily consumption of 5-ALA in the ALA groups was 0.329.6 mg to 0.347.1 mg/kg b.w./day. Each of the milk cows was milked at 09:00 and 17:00 and allowed to consume each feed at any time after milking.
Amounts of Milking from each cow were automatically recorded everyday by an auto milk recorder (manufactured by ORION MACHINERY CO., LTD.). Additionally, for each group of Section A and Section B, during the last 2 days in the ALA administration period of 14 days and the non-administration period of 14 days, 50 to 100 mL of milk was collected twice a day from cows of each period to use as milk samples for data analysis. The milk samples were preserved at −30° C. until the milk composition and the like were analyzed.
Using the above milk samples collected from each of the cows, the milk composition such as milk fat, proteins, casein, lactose, total solid (TS), solid not fat (SNF), milk urea nitrogen (MUN) and somatic cell count (SCC) was measured using a […] infrared spectroscopy (Milko-Scan, 133N, manufactured by Foss Electric, Hill-erod (Denmark)). Data of each cow were calculated as an average value of 4 milk samples collected for 2 days. For each group of Section A and Section B, the data average of the ALA administration periods (ALA Group A and ALA Group B) was shown under the item of ALA consumption groups, and the data average of the non-administration periods (Control Group A and Control Group B) was shown under the item of Control groups. The data were analyzed statistically as a crossover design using the mixing procedure of SPSS (PASW Statistics 18.0, manufactured by IBM). Statistical analysis of each result was carried out by mixed model and p<0.05(*) meant statistically significant difference. A tendency toward significance was considered at p<0.10.

[1] = 10 mg 5-ALA per kg TMR, 14 days, milk of last 2 days, ± standard error
[2] = 10 mg 5-ALA per kg TMR, 14 days, milk of last 2 days, ± standard error, p<0.05 vs control
[3] = feed to which 5-ALA was added, p<0.05

With `NCC(=O)CCC(=O)O` [5-ALA, 5-aminolevulinic acid] the Milk yield (10 mg 5-ALA per kg TMR fed for 14 days, crossover, n=6, ± standard error) was 23.78 ± 1.67 kg/day, the “Milk composition: Fat” value [1] was 4.42 ± 0.14% and the “Milk composition: Lactose” value [1] was 4.82 ± 0.02%. The “Milk composition: Non-fat solid” value [1] was 9.03 ± 0.17%, the “Milk composition: Overall solid” value [1] was 13.34 ± 0.28% and the “Milk composition: Casein” value [2] was 2.71 ± 0.09 a %. The “Milk composition: Proteins” value [2] was 3.51 ± 0.12 a %, the “Lactose compared with Control Groups” value (feed to which 5-ALA was added) was “no particular differences” and the “Milk fat compared with Control Groups” value (feed to which 5-ALA was added) was “no particular differences”. The “Milk yield compared with Control Groups” value (feed to which 5-ALA was added) was “no particular differences”, the “Non-fat solid compared with Control Groups” value (feed to which 5-ALA was added) was “no particular differences” and the “Overall solid compared with Control Groups” value (feed to which 5-ALA was added) was “no particular differences”. For the same compound, the “Casein content in milk compared with Control Groups” value [3] was “increased significantly” and the “Protein content in milk compared with Control Groups” value [3] was “increased significantly”.
